Laboratory results as given in patent publication US10035800B2 (AbbVie Inc., priority 2013, dated 2018).

Key:
BRD4 (BDI_K57-E168) = target: T1, BRD4 (BDI_K57-E168) (Homo sapiens, UniProt O60885); test: TR-FRET bromodomain binding assay, first bromodomain of BRD4; conditions: 100 nM probe
T1 construct: BD1: amino acids K57-E168; made in house
In short: (§1)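 His-tagged BRD4 bromodomain (8 nM) was incubated with Eu-anti-His antibody (1 nM) and an Alexa647-labelled BET-inhibitor probe (100 nM for BDI, 30 nM for BDII) in pH 6.0 phosphate buffer with 2% DMSO for 1 h at room temperature. TR-FRET ratio was read, IC50 fitted by 4-parameter logistic, then converted to Ki.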

BRD4 (BDII_E352-M457) = target: T2, BRD4 (BDII_E352-M457) (Homo sapiens, UniProt O60885); test: TR-FRET bromodomain binding assay, second bromodomain of BRD4; conditions: 30 nM probe
T2 construct: protocol; made in house
In short: as §1

[1] = system: breast cancer cell line MX-1; test: MX-1 cell line proliferation assay; format: cell-based; conditions: MX-1 cells, 3-day proliferation assay, Cell Titer Glo; read-out: Cellular proliferation: EC50
Experimental: MX-1 Cell Line Proliferation Assay
The impact of compounds of the Examples on cancer cell proliferation was determined using the breast cancer cell line MX-1 (ATCC) in a 3-day proliferation assay and the data are reported in Table 1. MX-1 cells were maintained in RPMI 1640 medium (Sigma) supplemented with 10% FBS at 37 C.° and an atmosphere of 5% CO2. For compound testing, MX-1 cells were plated in 96-well black bottom plates at a density of 5000 cells/well in 90 μL of culture media and incubated at 37° overnight to allow cell adhesion and spreading. Compound dilution series were prepared in DMSO via a 3-fold serial dilution from 3 mM to 0.1 μM. The DMSO dilution series were then diluted 1:100 in phosphate buffered saline, and 10 μL of the resulted solution were added to the appropriate wells of the MX-1 cell plate. The final compound concentrations in the wells were 3, 1, 0.3, 0.1, 0.03, 0.01, 0.003, 0.001, 0.0003, and 0.0001 μM or 1, 0.3, 0.1, 0.03, 0.01, 0.003, 0.001, 0.0003, 0.0001, and 0.00003 μM.
Luminescence readings from the Cell Titer Glo assay were normalized to the DMSO treated cells and analyzed using the GraphPad Prism software with sigmoidal curve fitting to obtain EC50s. The minimum significant ratio (MSR) was determined to evaluate assay reproducibility (Eastwood et al., (2006) J Biomol Screen, 11: 253-261). The overall MSR was determined to be 2.1 and a moving MSR (last six run MSR overtime) has been <2.

[2] = TR-FRET assay protocol G (compound 0.92 μM-15 pM)
[3] = TR-FRET assay protocol E (compound 9.19 μM-150 pM)

Molecule | Ki (BRD4 (BDI_K57-E168); [2]) [nM] | Ki (BRD4 (BDII_E352-M457); [2]) [nM] | EC50 [1] [nM] | Ki (BRD4 (BDI_K57-E168); [3]) [nM] | Ki (BRD4 (BDII_E352-M457); [3]) [nM]
Cn1cc2c3c(c[nH]c3c1=O)CN(CCc1ccccc1)c1c(F)cc(F)cc1-2 [Example 55, 5,7-difluoro-10-methyl-4-phenethyl-3,4-dihydro-1H-1,4,10-triazadibenzo[cd,f]azulen-11(10H)-one] | 8.96 | 15.9 | 146 | – | –
Cn1cc2c3c(c[nH]c3c1=O)CN(CC1CC1)c1c(F)cc(F)cc1-2 [Example 49, 4-(cyclopropylmethyl)-5,7-difluoro-10-methyl-3,4-dihydro-1H-1,4,10-triazadibenzo[cd,f]azulen-11(10H)-one] | 1.99 | 2.21 | 8.63 | – | –
4-(2-(3-(dimethylamino)propoxy)benzyl)-10-methyl-7-((methylsulfonyl)methyl)-3,4-dihydro-1H-1,4,10-triazadibenzo[cd,f]azulen-11(10H)-one [Example 260] | 7.26 | 3.4 | 219 | – | –
Cn1cc2c3c(c[nH]c3c1=O)C(c1ccccc1)N(c1ccc(F)cc1F)c1ccc(CS(C)(=O)=O)cc1-2 [Example 216, (S)-4-(2,4-difluorophenyl)-10-methyl-7-((methylsulfonyl)methyl)-3-phenyl-3,4-dihydro-1H-1,4,10-triazadibenzo[cd,f]azulen-11(10H)-one] | 57.3 | 65.8 | 603 | – | –
Cn1cc2c3c(c[nH]c3c1=O)C(Cc1ccccc1)Nc1ccc(CS(C)(=O)=O)cc1-2 (stereo not drawn) [Example 16, 3-benzyl-10-methyl-7-((methylsulfonyl)methyl)-3,4-dihydro-1H-1,4,10-triazadibenzo[cd,f]azulen-11(10H)-one] | – | – | 337 | 92.6 | 18.9
CN1CCN(C(=O)C2c3c[nH]c4c(=O)n(C)cc(c34)-c3cc(CS(C)(=O)=O)ccc3N2c2ccc(F)cc2)CC1 (stereo not drawn) [Example 41, 4-(4-fluorophenyl)-10-methyl-3-(4-methylpiperazine-1-carbonyl)-7-((methylsulfonyl)methyl)-3,4-dihydro-1H-1,4,10-triazadibenzo[cd,f]azulen-11(10H)-one] | 49.5 | 57.8 | > 1000 | – | –
COC(=O)NC1CCC(N2Cc3c[nH]c4c(=O)n(C)cc(c34)-c3cc(CS(C)(=O)=O)ccc32)CC1 (stereo not drawn) [Example 225, methyl ((trans)-4-(10-methyl-7-((methylsulfonyl)methyl)-11-oxo-10,11-dihydro-1H-1,4,10-triazadibenzo[cd,f]azulen-4(3H)-yl)cyclohexyl)carbamate] | 3.25 | 2.39 | 12.2 | – | –
CCOCCCC1c2c[nH]c3c(=O)n(C)cc(c23)-c2cc(CS(C)(=O)=O)ccc2N1c1ccc(F)cc1F (stereo not drawn) [Example 148, 4-(2,4-difluorophenyl)-3-(3-ethoxypropyl)-10-methyl-7-((methylsulfonyl)methyl)-3,4-dihydro-1H-1,4,10-triazadibenzo[cd,f]azulen-11(10H)-one] | 6.77 | 0.54 | 31.9 | – | –
Cn1cc2c3c(c[nH]c3c1=O)C(CCC(=O)N1CCN(C(=O)OC(C)(C)C)CC1)N(c1ccc(F)cc1F)c1ccc(CS(C)(=O)=O)cc1-2 (stereo not drawn) [Example 125, tert-butyl 4-(3-(4-(2,4-difluorophenyl)-10-methyl-7-((methylsulfonyl)methyl)-11-oxo-3,4,10,11-tetrahydro-1H-1,4,10-triazadibenzo[cd,f]azulen-3-yl)propanoyl)piperazine-1-carboxylate] | 9.26 | 2.36 | 342 | – | –
Cn1cc2c3c(c[nH]c3c1=O)C(CN1Cc3ccccc3C1=O)N(c1ccc(F)cc1F)c1ccc(CS(C)(=O)=O)cc1-2 (stereo not drawn) [Example 220, 4-(2,4-difluorophenyl)-10-methyl-7-((methylsulfonyl)methyl)-3-((1-oxoisoindolin-2-yl)methyl)-3,4-dihydro-1H-1,4,10-triazadibenzo[cd,f]azulen-11(10H)-one] | 51.6 | 2.61 | 285 | – | –
Cn1ccc(CN2Cc3c[nH]c4c(=O)n(C)cc(c34)-c3cc(CS(C)(=O)=O)ccc32)n1 [Example 255, 10-methyl-4-((1-methyl-1H-pyrazol-3-yl)methyl)-7-((methylsulfonyl)methyl)-3,4-dihydro-1H-1,4,10-triazadibenzo[cd,f]azulen-11(10H)-one] | 4.53 | 7.33 | 34.3 | – | –
Cn1cc2c3c(c[nH]c3c1=O)CN(S(=O)(=O)C1CC1)c1ccc(CS(C)(=O)=O)cc1-2 [Example 172, 4-(cyclopropylsulfonyl)-10-methyl-7-((methylsulfonyl)methyl)-3,4-dihydro-1H-1,4,10-triazadibenzo[cd,f]azulen-11(10H)-one] | 57.8 | 12.8 | 551 | – | –
Cn1cc2c3c(c[nH]c3c1=O)CN(CCc1ccc3c(c1)OCO3)c1c(F)cc(F)cc1-2 [Example 56, 4-(2-(benzo[d][1,3]dioxol-5-yl)ethyl)-5,7-difluoro-10-methyl-3,4-dihydro-1H-1,4,10-triazadibenzo[cd,f]azulen-11(10H)-one] | 14.4 | 35.3 | 197 | – | –
CC(=O)OCC(CCC1c2c[nH]c3c(=O)n(C)cc(c23)-c2cc(CS(C)(=O)=O)ccc2N1c1ccc(F)cc1F)OC(C)=O (stereo not drawn) [Example 133, 4-(4-(2,4-difluorophenyl)-10-methyl-7-((methylsulfonyl)methyl)-11-oxo-3,4,10,11-tetrahydro-1H-1,4,10-triazadibenzo[cd,f]azulen-3-yl)butane-1,2-diyl diacetate] | 9.29 | 1.4 | 204 | – | –
CCOC(=O)N1Cc2c[nH]c3c(=O)n(C)cc(c23)-c2cc(CS(C)(=O)=O)ccc21 [Example 87, ethyl 10-methyl-7-((methylsulfonyl)methyl)-11-oxo-10,11-dihydro-1H-1,4,10-triazadibenzo[cd,f]azulene-4(3H)-carboxylate] | 2.54 | 2.1 | 4.69 | – | –
Cn1cc2c3c(c[nH]c3c1=O)CN(C1CCC(N)CC1)c1ccc(CS(C)(=O)=O)cc1-2 (mixture of isomers) [Example 212, 4-(4-aminocyclohexyl)-10-methyl-7-((methylsulfonyl)methyl)-3,4-dihydro-1H-1,4,10-triazadibenzo[cd,f]azulen-11(10H)-one] | 2.39 | 5 | 155 | – | –
Cn1cc2c3c(c[nH]c3c1=O)C(CN1C(=O)c3ccccc3C1=O)N(c1ccc(F)cc1F)c1ccc(CS(C)(=O)=O)cc1-2 [Example 204, (S)-2-((4-(2,4-difluorophenyl)-10-methyl-7-((methylsulfonyl)methyl)-11-oxo-3,4,10,11-tetrahydro-1H-1,4,10-triazadibenzo[cd,f]azulen-3-yl)methyl)isoindoline-1,3-dione] | 46.1 | 1.22 | > 1000 | – | –
4-([1,1′-biphenyl]-4-carbonyl)-10-methyl-7-((methylsulfonyl)methyl)-3,4-dihydro-1H-1,4,10-triazadibenzo[cd,f]azulen-11(10H)-one [Example 102] | 9.41 | 26.9 | 151 | – | –
4-(4-chlorophenyl)-10-methyl-2-(1-methyl-1H-pyrazol-4-yl)-7-(methylsulfonyl)-3,4-dihydro-1H-1,4,10-triazadibenzo[cd,f]azulen-11(10H)-one [Example 271] | 3.91 | 1.64 | 85.2 | – | –
